Consider 1 compound from patent publication US20020090402A1, “Pharmaceutical composition against type I allergy and the preparation thereof” (priority 2000, published 2002).

The subject of the experiment is passive skin sensitization for the rats. The experiment in a line: anti-allergic pharmacodynamics: passive skin sensitization of rats (anti-trichosanthes serum, Evans blue, 620 nm colorimetry). Format: in vivo, Wistar male rats. Particulars: rat, 5 mg/Kg IV one minute before second sensitization. From the text: Research of anti-allergic pharmacodynamics of the pharmaceutical composition of the present invention
Wistar male rats with body weight of 100˜120 g were used, which were provided by the Experimental Animal Center of the Chinese Academy of Medical Sciences.
1. Tablets of this pharmaceutical composition obtained from Example 1 of this invention. It was made into a suspension with 0.5%CMC-Na.
2. Positive contrast medicament: disodium chromoglycate (produced by Shanghai Pharmaceutical Factory No. 5). It is dissolved with normal saline when it is used.
After the rats were divided in groups at random, they were lavaged and dosed with the above-mentioned pharmaceutical composition of this invention according to 6 g/Kg and 3 g/Kg, once a day, continuously for 10 days. After hair on their backs of all groups of animals was removed, said animals were sensitized for the first time with hypodermic injection with anti-trichosanthes serum. At the same time, the dosing groups took the pharmaceutical composition according to 6 g/Kg, two hours before the second sensitization. The positive contrast groups were dosed with IV of disodium chromoglycate in accordance of 5 mg/Kg, one minute before the second sensitization was made. All groups of animals were given with IV of 1% EVANSLAN (including trichosanthes protein of 1 mg/ml) in accordance with 1 mg/Kg for the second sensitization. […]

On to `O=C([O-])c1cc(=O)c2c(OCC(O)COc3cccc4oc(C(=O)[O-])cc(=O)c34)cccc2o1.[Na+].[Na+]` [Positive contrast, disodium chromoglycate], for which the Inhibition rate stood at 78.2%. Moreover, the “OD value (X ± SD)” value (620 nm) is given as 0.19 ± 0.11.
